Measurements as given in patent publication US12049439B2 (OrsoBio, Inc., priority 2018, dated 2024).

system: PC-3 cells; test: PC-3 Oxygen Rate Consumption (OCR) Assay; format: cell-based; conditions: Homo sapiens, 0.05 h, medium with 2% FBS, OCR at 3-min post-injection normalized to % increase over DMSO-treated cells, concentration for half-maximal OCR increase, read-out: EC50-PC3-OCR-FBS-3min
In short: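 Oxygen consumption read on Seahorse XFe96: three basal measurements, then compound injection and 10 cycles over 30 min. EC50 defined as concentration giving half-maximal OCR rise, using 3-min post-injection values as % above DMSO controls, six replicates per treatment, in PC-3 cells in glucose/pyruvate medium.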

SMILES	EC50
CS(=O)(=O)Nc1ccc(C(F)(F)F)cc1C(=O)NC12CCC(C#N)(CC1)C2 [Example 173, N-(4-cyanobicyclo[2.2.1]heptan-1-yl)-2-(methylsulfonamido)-5-(trifluoromethyl)benzamide]	26.4 µM
CS(=O)(=O)Nc1cc(F)ccc1C(=O)NC12C3C4C5C3C1C5C42 (centres unmarked) [Example 139, N-(cuban-1-yl)-4-fluoro-2-(methylsulfonamido)benzamide]	23.7 µM
CC(C)(C)c1ccc(S(=O)(=O)Nc2cc(C(F)(F)F)ccc2C(=O)NC23CC(C#N)(C2)C3)cc1 [Example 7, 2-((4-(tert-butyl)phenyl)sulfonamido)-N-(3-cyanobicyclo[1.1.1]pentan-1-yl)-4-(trifluoromethyl)benzamide]	0.813 µM
CC1(S(=O)(=O)Nc2cc(C(F)(F)F)ccc2C(=O)NC23CC(C2)C3)CC1 [Example 66, N-(bicyclo[1.1.1]pentan-1-yl)-2-((1-methylcyclopropane)-1-sulfonamido)-4-(trifluoromethyl)benzamide]	8.35 µM
O=C(NC12CC(C(F)(F)F)(C1)C2)c1ccc(C(F)(F)F)cc1NS(=O)(=O)c1ccc(N2CCS(=O)(=O)CC2)cc1 [Example 106, 2-((4-(1,1-dioxidothiomorpholino)phenyl)sulfonamido)-4-(trifluoromethyl)-N-(3-(trifluoromethyl)bicyclo[1.1.1]pentan-1-yl)benzamide]	18.8 µM
